Source: US10980794B2, “PRMT5 inhibitors and uses thereof” (Epizyme, Inc., priority 2012, dated 2021)

Assays:
[1] = tested on: symmetric di-methyl arginine in Z-138 cells; test: Z-138 Methylation Assay (In Cell Western for symmetric di-methyl arginine and DNA content); type: cell-based; details: read-out: ICW EC50
Text: [formula] [formula] Where top and bottom are the normally allowed to float, but may be fixed at 100 or 0 respectively in a 3-parameter fit. The Hill Coefficient normally allowed to float but may also be fixed at 1 in a 3-parameter fit. Y is the % inhibition and X is the compound concentration.
RPMI/Glutamax medium, penicillin-streptomycin, heat inactivated fetal bovine serum, and D-PBS were purchased from Life Technologies, Grand Island, N.Y., USA. Odyssey blocking buffer, 800 CW goat anti-rabbit IgG (H+L) antibody, and Licor Odyssey infrared scanner were purchased from Licor Biosciences, Lincoln, Nebr., USA. Symmetric di-methyl arginine antibody was purchased from EMD Millipore, Billerica, Mass., USA. 16% Paraformaldehyde was purchased from Electron Microscopy Sciences, Hatfield, Pa., USA. […]
First, the ratio for each well was determined by:
Each plate included fourteen control wells of DMSO only treatment (minimum inhibition) as well as fourteen control wells for maximum inhibition treated with 3 μM of a reference compound (Background wells). The average of the ratio values for each control type was calculated and used to determine the percent inhibition for each test well in the plate. […] Percent inhibition was determined and IC50 curves were generated using triplicate wells per concentration of compound.

[2] = tested on: Z-138 cell line; test: Z-138 Proliferation Assay (Cell Titer Glo, 5 days); type: cell-based; details: Z-138 cells
Text: RPMI/Glutamax medium, penicillin-streptomycin, heat inactivated fetal bovine serum were purchased from Life Technologies, Grand Island, N.Y., USA. V-bottom polypropylene 384-well plates were purchased from Greiner Bio-One, Monroe, N.C., USA. Cell culture 384-well white opaque plates were purchased from Perkin Elmer, Waltham, Mass., USA. Cell-Titer Glo® was purchased from Promega Corporation, Madison, Wis., USA. SpectraMax M5 plate reader was purchased from Molecular Devices LLC, Sunnyvale, Calif., USA.
A compound source plate was prepared by performing triplicate nine-point 3-fold serial dilutions in DMSO, beginning at 10 mM (final top concentration of compound in the assay was 20 μM and the DMSO was 0.2%). A 100 nL aliquot from the compound stock plate was added to its respective well in the cell plate. […] Luminescence was read in the SpectraMax M5 microplate reader. The concentration of compound inhibiting cell viability by 50% was determined using a 4-parametric fit of the normalized dose response curves.

CN(C[C@H](O)CN1CCc2ccccc2C1)C(=O)c1cc(NC2CCOCC2)ncn1 [Compound 232]
EC50 [1]: 101 to 1000 nM
EC50 [2]: 1000 to 10000 nM
